Literature values in US20090030079A1 (priority 2007, published 2009).
Like-named read-outs stand apart in the source and are kept apart here.

Tests used:
[1] = Cr^2+; cited from earlier work
[2] = Pd^2+, cited from earlier work
[3] = cited from earlier work

## NCCNCCNCCN [Trientine, N,N′-bis (2-aminoethyl)-1,2-ethanediamine]
[1]
  binding stability constant (log K): 7.9
[2]
  binding stability constant (log K): 39.4
[2]; listed as trientine
  binding stability constant (log K): very strongly

## CC(C)(S)[C@@H](N)C(=O)O [Penicillamine, 3-mercapto-D-valine]
[3]; in acetone
  solubility: insoluble
[3]; in alcohol
  solubility: slightly soluble
[3]; in benzene
  solubility: insoluble
[3]; in carbon tetrachloride
  solubility: insoluble
[3]; in ether
  solubility: insoluble
[3]; in water
  solubility: freely soluble
